Results published in patent US20220306617A1, “SUBSTITUTED 1,3-PHENYL HETEROARYL DERIVATIVES AND THEIR USE IN THE TREATMENT OF DISEASE” (NOVARTIS AG, priority 2019, published 2022).
Structures can show the parent of a compound that is named as a salt.

Biological target: T1, abc isoform of human TMEM16A channel expressed in CHO cells (Homo sapiens, UniProt Q5XXA6, DEL476-501)
T1 construct: expressed in transfected cells; host or cells: CHO cells, doxycycline-inducible expression under Blasticidin/Zeocin selection
T1 sequence (Q5XXA6 with tags, fused parts or gaps isoform Q5XXA6-5 DEL539-564): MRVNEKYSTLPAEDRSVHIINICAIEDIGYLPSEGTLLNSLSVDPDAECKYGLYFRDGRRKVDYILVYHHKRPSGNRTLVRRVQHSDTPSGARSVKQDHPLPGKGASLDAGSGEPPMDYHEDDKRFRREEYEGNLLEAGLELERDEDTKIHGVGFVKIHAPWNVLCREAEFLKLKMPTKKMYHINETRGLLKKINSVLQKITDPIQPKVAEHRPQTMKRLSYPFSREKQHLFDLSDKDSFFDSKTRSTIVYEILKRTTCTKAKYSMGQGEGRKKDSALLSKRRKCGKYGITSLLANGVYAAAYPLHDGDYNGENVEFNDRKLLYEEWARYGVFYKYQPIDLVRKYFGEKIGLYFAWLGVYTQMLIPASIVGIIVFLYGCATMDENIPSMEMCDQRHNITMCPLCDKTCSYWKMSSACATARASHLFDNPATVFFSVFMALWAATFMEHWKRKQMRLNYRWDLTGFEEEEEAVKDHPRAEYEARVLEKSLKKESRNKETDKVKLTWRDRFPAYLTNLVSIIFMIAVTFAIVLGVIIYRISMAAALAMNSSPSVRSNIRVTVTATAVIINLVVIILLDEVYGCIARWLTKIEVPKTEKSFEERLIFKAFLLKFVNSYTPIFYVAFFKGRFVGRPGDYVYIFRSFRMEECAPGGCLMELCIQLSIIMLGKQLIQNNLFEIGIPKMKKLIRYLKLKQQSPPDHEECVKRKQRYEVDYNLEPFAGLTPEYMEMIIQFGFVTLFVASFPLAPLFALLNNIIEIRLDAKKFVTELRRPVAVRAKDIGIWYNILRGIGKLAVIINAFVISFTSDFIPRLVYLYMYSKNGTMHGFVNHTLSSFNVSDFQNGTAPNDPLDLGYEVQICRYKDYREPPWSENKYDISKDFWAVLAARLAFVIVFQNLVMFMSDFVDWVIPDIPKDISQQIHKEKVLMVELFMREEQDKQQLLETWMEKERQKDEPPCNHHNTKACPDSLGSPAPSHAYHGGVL
Assay: Automated patch clamping (QPatch) assay to measure TMEM16A activity in whole-cell
Type: cell-based
Conditions: for EC50: CHO cells expressing human TMEM16A (abc), whole-cell automated patch clamp, Hill fit, read-out: TMEM16A QPATCH assay EC50 V3 EC50; for Emax: CHO, read-out: TMEM16A QPATCH assay EC50 V3 Assay Window (% TMEM16A max activation)
Procedure, shortened: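 Whole-cell currents were recorded by planar automated patch clamp from induced CHO cells (doxycycline 1 μg/mL, 18-24 h), using a −70 mV hold, +70 mV step and −90 to +70 mV ramp. Values: Hill-fitted EC50, and activation scaled between vehicle current and reference-potentiator maximum; 0.3% DMSO final.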

[1] = maximum current at highest dose relative to reference potentiator at maximal concentration (upper limit) and vehicle (lower limit)

SMILES | EC50 [nM] | Emax [1] [%] | TMEM16A QPATCH assay EC50 V3 Assay Window (% TMEM16A max activation) [1] [%]
CCC(CC)NC(=O)c1cnc(-c2cccc(-c3cc(C(=O)NC(CC)C(C)C)n[nH]3)c2)o1 (stereo not drawn) [Example 3.29, 2-(3-(3-((2-Methylpentan-3-Yl)Carbamoyl)-1H-Pyrazol-5-Yl)Phenyl)-N-(Pentan-3-Yl)Oxazole-5-Carboxamide] | 40 | 94 | –
CCC(CC)NC(=O)c1cnc(-c2cccc(-c3cc(C(=O)NCc4ccc5c(c4)OCO5)n[nH]3)c2)o1 [Example 3.22, 2-(3-(3-((Benzo[d][1,3]Dioxol-5-Ylmethyl)Carbamoyl)-1H-Pyrazol-5-Yl)Phenyl)-N-(Pentan-3-Yl)Oxazole-5-Carboxamide] | 140 | 60 | –
CCC(CC)NC(=O)c1cc(-c2cccc(-c3ncc(C(=O)N[C@H](C)C4CCCCC4)o3)c2)[nH]n1 [Example 1.42, (R)-N-(1-Cyclohexylethyl)-2-(3-(3-(Pentan-3-Ylcarbamoyl)-1 H-Pyrazol-5-yl)Phenyl)Oxazole-5-Carboxamide] | 750 | 72 | –
CCC(CC)NC(=O)c1cnc(-c2cccc(-c3cc(C(=O)N[C@H](C)C4CC4)[nH]n3)c2)o1 [Example 3.56, (R)-2-(3-(5-((1-Cyclopropylethyl)Carbamoyl)-1H-Pyrazol-3-Yl)Phenyl)-N-(Pentan-3-Yl)Oxazole-5-Carboxamide] | 90 | 78 | –
CCC(CC)NC(=O)c1cnc(-c2cccc(-c3cc(C(=O)N[C@H](C(=O)OCc4ccccc4)C(C)C)n[nH]3)c2)o1 [Example 3.3, (S)-Benzyl 3-Methyl-2-(5-(3-(5-(Pentan-3-Ylcarbamoyl)Oxazol-2-Yl)Phenyl)-1 H-Pyrazole-3-Carboxamido)Butanoate] | 180 | 133 | –
CCOC(=O)[C@H](CCSC)NC(=O)c1cnc(-c2cccc(-c3cc(C(=O)NC(CC)CC)n[nH]3)c2)o1 [Example 1.14, (S)-Ethyl 4-(Methylthio)-2-(2-(3-(3-(Pentan-3-Ylcarbamoyl)-1H-Pyrazol-5-yl)Phenyl)Oxazole-5-Carboxamido)Butanoate] | 680 | 111 | –
CCC(CC)NC(=O)c1cnc(-c2cccc(-c3cc(C(=O)N[C@H](C)c4ccccc4)n[nH]3)c2)o1 [Example 3.51, (R)-N-(Pentan-3-Yl)-2-(3-(3-((1-Phenylethyl)Carbamoyl)-1H-Pyrazol-5-Yl)Phenyl)Oxazole-5-Carboxamide] | 110 | 68 | –
CCC(CC)NC(=O)c1cc(-c2cccc(-c3ncc(C(=O)NC4CCCC4)o3)c2)[nH]n1 [Example 1.2] | 800 | 83 | –
CCC(CC)NC(=O)c1cnc(-c2cccc(-c3cc(C(=O)NC(C)(C4CC4)C(F)(F)F)n[nH]3)c2)o1 (stereo not drawn) [Example 3.8, 2-(3-(3-((2-Cyclopropyl-1,1,1-Trifluoropropan-2-Yl)Carbamoyl)-1H-Pyrazol-5-Yl)Phenyl)-N-(Pentan-3-Yl)Oxazole-5-Carboxamide] | 50 | 99 | –
CCC(CC)NC(=O)c1cc(-c2cccc(-c3ncc(C(=O)NCc4c(F)cccc4F)o3)c2)[nH]n1 [Example 1.43, N-(2,6-Difluorobenzyl)-2-(3-(3-(Pentan-3-Ylcarbamoyl)-1H-Pyrazol-5-yl)Phenyl)Oxazole-5-Carboxamide] | 430 | 70 | –
CCC(CC)NC(=O)c1cc(-c2cccc(-c3ncc(C(=O)N[C@H](C)C(C)C)o3)c2)[nH]n1 [Example 1.46, (R)-N-(3-Methylbutan-2-Yl)-2-(3-(3-(Pentan-3-Ylcarbamoyl)-1 H-Pyrazol-5-yl)Phenyl)Oxazole-5-Carboxamide] | 990 | 19 | –
CCC(CC)NC(=O)c1cnc(-c2cccc(-c3cc(C(=O)N[C@H](C(=O)OC)C(C)C)n[nH]3)c2)o1 [Example 3.41, (S)-Methyl 3-Methyl-2-(5-(3-(5-(Pentan-3-Ylcarbamoyl)Oxazol-2-Yl)Phenyl)-1H-Pyrazole-3-Carboxamido)Butanoate] | 130 | 89 | –
CCC(CC)NC(=O)c1cnc(-c2cccc(-c3cc(C(=O)N[C@@H](COC(C)(C)C)C(=O)OC(C)(C)C)n[nH]3)c2)o1 [Example 3.61, (S)-Tert-Butyl 3-(Tert-Butoxy)-2-(5-(3-(5-(Pentan-3-Ylcarbamoyl)Oxazol-2-Yl)Phenyl)-1 H-Pyrazole-3-Carboxamido)Propanoate Trifluoroacetate] | 130 | 123 | –
CCOC(=O)[C@H](NC(=O)c1cnc(-c2cccc(-c3cc(C(=O)NC(CC)CC)[nH]n3)c2)o1)C(C)C [Example 1.44, (R)-Ethyl 3-Methyl-2-(2-(3-(5-(Pentan-3-Ylcarbamoyl)-1H-Pyrazol-3-yl)Phenyl)Oxazole-5-Carboxamido)Butanoate] | 510 | 69 | –
CCOC(=O)[C@H](C)NC(=O)c1cc(-c2cccc(-c3ncc(C(=O)NC(CC)CC)o3)c2)[nH]n1 [Example 3.63, (S)-Ethyl 2-(5-(3-(5-(Pentan-3-Ylcarbamoyl)Oxazol-2-Yl)Phenyl)-1H-Pyrazole-3-Carboxamido)Propanoate Trifluoroacetate] | 860 | 72 | –
CCOC(=O)[C@@H](NC(=O)c1cnc(-c2cccc(-c3cc(C(=O)NC(C4CC4)C(F)(F)F)[nH]n3)c2)o1)C(C)C (single isomer, unassigned) [Example 2.3 (ii)] | 80 | – | 97
CCC(CC)NC(=O)c1cnc(-c2cccc(-c3cc(C(=O)N4CCC(C)(OC)CC4)n[nH]3)c2)o1 [Example 3.47, 2-(3-(3-(4-Methoxy-4-Methylpiperidine-1-Carbonyl)-1H-Pyrazol-5-yl)Phenyl)-N-(Pentan-3-Yl)Oxazole-5-Carboxamide] | 940 | 77 | –
CCOC(=O)C(C)(C)NC(=O)c1cnc(-c2cccc(-c3cc(C(=O)NC(CC)CC)n[nH]3)c2)o1 [Example 1.51, Ethyl 2-Methyl-2-(2-(3-(3-(Pentan-3-Ylcarbamoyl)-1H-Pyrazol-5-Yl)Phenyl)Oxazole-5-Carboxamido)Propanoate Trifluoroacetate] | 980 | 64 | –

Second part, the compound after the results:

EC50 [nM] | Emax [1] [%] | TMEM16A QPATCH assay EC50 V3 Assay Window (% TMEM16A max activation) [1] [%] | SMILES
680 | 108 | – | C[C@H](NC(=O)c1cc(-c2cccc(-c3ncc(C(=O)N[C@H](C)C4CC4)o3)c2)nn1CCO)C1CC1 [Example 10.2, N-((R)-1-Cyclopropylethyl)-2-(3-(5-(((S)-1-Cyclopropylethyl)Carbamoyl)-1-(2-Hydroxyethyl)-1H-Pyrazol-3-Yl)Phenyl)Oxazole-5-Carboxamide]
240 | 104 | – | CCC(CC)NC(=O)c1cnc(-c2cccc(-c3cc(C(=O)N[C@@H](C)C4CC4)n(CC(C)O)n3)c2)o1 (stereo partly drawn) [Example 9.5, 2-(3-(5-(((S)-1-Cyclopropylethyl)Carbamoyl)-1-(2-Hydroxypropyl)-1H-Pyrazol-3-Yl)Phenyl)-N-(Pentan-3-Yl)Oxazole-5-Carboxamide]
90 | 85 | – | CCC(CC)NC(=O)c1cnc(-c2cccc(-c3cc(C(=O)NC(CC)CC)n(CCO)n3)c2)o1 [Example 9.7, 2-(3-(1-(2-Hydroxyethyl)-5-(Pentan-3-Ylcarbamoyl)-1H-Pyrazol-3-Yl)Phenyl)-N-(Pentan-3-Yl)Oxazole-5-Carboxamide]
80 | 73 | – | CCC(CC)NC(=O)c1cnc(-c2cccc(-c3nc(C(=O)NC(CC)CC)n(CC(=O)OC(C)(C)C)n3)c2)o1 [Example 15.10, Tert-Butyl 2-(5-(Pentan-3-Ylcarbamoyl)-3-(3-(5-(Pentan-3-Ylcarbamoyl)Oxazol-2-Yl)Phenyl)-1H-1,2,4-Triazol-1-Yl)Acetate]
150 | 137 | – | CCC(CC)NC(=O)c1cnc(-c2cccc(-c3cc(C(=O)N[C@@H](C)C4CC4)n(CCOC(C)C)n3)c2)o1 [Example 9.0, (S)-2-(3-(5-((1-Cyclopropylethyl)Carbamoyl)-1-(2-Isopropoxyethyl)-1 H-Pyrazol-3-Yl)Phenyl)-N-(Pentan-3-Yl)Oxazole-5-Carboxamide]
440 | 83 | – | CCC(CC)NC(=O)c1cnc(-c2cccc(-c3nnc(C(=O)NC(CC)CC)n3CCOC)c2)o1 [Example 15.5, 2-(3-(4-(2-Methoxyethyl)-5-(Pentan-3-Ylcarbamoyl)-4H-1,2,4-Triazol-3-Yl)Phenyl)-N-(Pentan-3-Yl)Oxazole-5-Carboxamide]
